Where two headings read alike, the source gives them in different places.
Tests used:
[1] = target: T1, human 5-HT6 (h5-HT6) receptors (Homo sapiens, UniProt P50406); assay: Competition radioligand binding, h5-HT6 ([3H]LSD); conditions: membranes of HEK-293 cells, 1 hr RT
T1 construct: purchased Receptor Biology, Inc. (Beltsville, Md.); host or cells: HEK-293 cells

[2] = target: T2, human 5-HT7B (h5-HT7b) receptors (Homo sapiens, UniProt P34969); assay: Competition radioligand binding, h5-HT7b ([3H]5-CT); conditions: membranes of HEK 293 cells, 2 hr 37° C., read-out: Ki (nM) 5-HT7
T2 construct: expressed in transfected cells
T2 sequence (P34969 1-432 limits assumed): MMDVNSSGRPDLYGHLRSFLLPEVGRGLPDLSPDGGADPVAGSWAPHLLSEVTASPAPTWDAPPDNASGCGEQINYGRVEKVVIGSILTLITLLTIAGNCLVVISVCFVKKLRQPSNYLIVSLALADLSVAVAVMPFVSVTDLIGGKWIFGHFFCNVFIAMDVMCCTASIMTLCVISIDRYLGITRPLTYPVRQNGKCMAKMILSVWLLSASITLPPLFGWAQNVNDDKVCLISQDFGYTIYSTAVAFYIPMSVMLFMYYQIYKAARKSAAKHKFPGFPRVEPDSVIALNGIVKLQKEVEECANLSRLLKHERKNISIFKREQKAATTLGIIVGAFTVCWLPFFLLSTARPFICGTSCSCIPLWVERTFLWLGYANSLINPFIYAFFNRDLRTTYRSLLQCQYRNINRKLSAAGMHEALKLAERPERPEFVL

[3] = target: human D2S dopamine (hD2S-DA) receptors (Homo sapiens, UniProt P14416); assay: Competition radioligand binding, hD2s DA ([3H]Spiperone)
Sequence of human D2S dopamine (hD2S-DA) receptors (P14416 1-414 isoform P14416-2): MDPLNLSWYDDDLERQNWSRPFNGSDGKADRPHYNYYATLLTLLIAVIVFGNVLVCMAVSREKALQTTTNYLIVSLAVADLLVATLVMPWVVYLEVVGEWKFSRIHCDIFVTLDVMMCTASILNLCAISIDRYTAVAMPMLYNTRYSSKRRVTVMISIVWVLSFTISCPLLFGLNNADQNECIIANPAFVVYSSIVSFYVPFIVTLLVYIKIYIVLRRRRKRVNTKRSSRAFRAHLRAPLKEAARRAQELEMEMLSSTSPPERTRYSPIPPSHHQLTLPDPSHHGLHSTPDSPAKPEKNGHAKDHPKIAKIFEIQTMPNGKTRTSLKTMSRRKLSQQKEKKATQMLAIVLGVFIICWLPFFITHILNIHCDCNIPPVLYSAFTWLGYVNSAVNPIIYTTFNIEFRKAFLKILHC
Experimental: (§1) Cell pellets were homogenized in approximately 50 mL of homogenization buffer (buffer A) containing: 50 mM Tris (pH 7.4), 2 mM EGTA, 0.32 M sucrose, 10 μM PMSF, 1 μg/mL leupeptin, 5 μg/mL Pepstatin A, and 5 μg/mL aprotinin using an UltraTurax homogenizer (Tekmar Company, Cincinnati, Ohio) at 80% maximum setting three times for 10 sec. Cell pellets were centrifuged at 4° C. at 1,500×g for 10 min in a Beckman GS-6R centrifuge. Pellets were resuspended in buffer A, homogenized and centrifuged as described above. Pooled supernatants were transferred to centrifuge bottles and centrifuged at 4° C. at 20,000×g for 30 min in a Beckman J2-HS centrifuge. Cell pellets were resuspended in buffer A and were centrifuged at 4° C. at 20,000×g for 30 min. Cell pellets were resuspended in buffer A and stored at −70° C. in aliquots of 2.5 mg/mL total membrane protein. Total membrane protein was assessed utilizing a BCA kit (Pierce; Rockford, Ill.).
(§2) Filters were washed three times with ice-cold phosphate-buffered saline (PBS) wash buffer containing 50 mM NaPO4 (pH 7.4), 0.9% NaCl, 2 mM MgCl2 and 0.02% NaN3. The filters were then counted using liquid scintillation in a Packard Topcount scintillation counter.
(§3) Data Analysis: Radioligand binding experiments were analyzed with Prism™ (GraphPad, San Diego, Calif.), a computer graphics and statistics program. IC50 values and Hill slopes for compounds were generated by nonlinear regression using Prism™.

[4] = target: human 5-HT2a receptors (Homo sapiens, UniProt P28223); assay: Competition radioligand binding, h5-HT2a ([3H]Ketanserin)
Sequence of human 5-HT2a receptors (P28223 whole entry): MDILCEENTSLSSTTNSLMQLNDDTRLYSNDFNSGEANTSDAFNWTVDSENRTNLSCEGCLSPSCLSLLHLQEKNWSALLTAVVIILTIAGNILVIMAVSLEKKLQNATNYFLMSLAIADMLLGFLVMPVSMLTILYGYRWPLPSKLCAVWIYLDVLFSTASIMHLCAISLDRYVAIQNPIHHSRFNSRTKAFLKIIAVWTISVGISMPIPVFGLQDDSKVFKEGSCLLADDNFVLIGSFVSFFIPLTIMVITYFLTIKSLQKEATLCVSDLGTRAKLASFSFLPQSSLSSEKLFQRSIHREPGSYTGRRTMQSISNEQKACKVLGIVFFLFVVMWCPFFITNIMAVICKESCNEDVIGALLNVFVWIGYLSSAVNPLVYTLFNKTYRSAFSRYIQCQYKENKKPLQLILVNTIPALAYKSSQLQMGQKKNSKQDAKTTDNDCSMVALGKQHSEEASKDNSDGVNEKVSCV
Experimental: The 5-HT receptor binding properties of the compounds are identified by competitive radioligand binding assays wherein membranes prepared from transfected cells expressing the 5-HT receptor subtype of interest. “Binding constants” refers herein to Ki values measured by inhibition of the binding of radiolabelled ligands that are selective for the 5-HT receptor type being studied.
as §1, §2, §3

[5] = target: T3, human 5-HT1a receptors (Homo sapiens, UniProt P08908); assay: Competition radioligand binding, h5-HT1a ([3H]5-CT); conditions: membranes of CHO K1 cells, 1 hr RT
T3 construct: expressed in transfected cells; host or cells: CHO K1 cells
T3 sequence (P08908 1-422): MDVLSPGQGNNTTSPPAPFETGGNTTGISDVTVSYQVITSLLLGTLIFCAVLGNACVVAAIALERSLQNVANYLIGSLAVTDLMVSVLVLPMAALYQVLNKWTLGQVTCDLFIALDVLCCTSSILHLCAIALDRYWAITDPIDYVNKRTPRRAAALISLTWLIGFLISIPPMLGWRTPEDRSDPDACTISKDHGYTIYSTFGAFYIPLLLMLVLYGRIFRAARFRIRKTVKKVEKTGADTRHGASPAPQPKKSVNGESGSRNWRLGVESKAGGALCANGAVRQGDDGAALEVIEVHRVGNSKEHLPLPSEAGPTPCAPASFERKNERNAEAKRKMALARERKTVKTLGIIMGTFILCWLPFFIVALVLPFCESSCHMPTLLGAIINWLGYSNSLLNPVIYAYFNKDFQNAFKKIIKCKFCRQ

[6] = read-out: Ki (nM) D2, membranes of A9 L cells, [3H]Spiperone, 2 hr RT
[7] = read-out: Ki (nM) 5-HT2A, membranes of CHO K1 cells, [3H]Ketanserin, 1 hr 37° C.

T1 sequence (P50406 whole entry): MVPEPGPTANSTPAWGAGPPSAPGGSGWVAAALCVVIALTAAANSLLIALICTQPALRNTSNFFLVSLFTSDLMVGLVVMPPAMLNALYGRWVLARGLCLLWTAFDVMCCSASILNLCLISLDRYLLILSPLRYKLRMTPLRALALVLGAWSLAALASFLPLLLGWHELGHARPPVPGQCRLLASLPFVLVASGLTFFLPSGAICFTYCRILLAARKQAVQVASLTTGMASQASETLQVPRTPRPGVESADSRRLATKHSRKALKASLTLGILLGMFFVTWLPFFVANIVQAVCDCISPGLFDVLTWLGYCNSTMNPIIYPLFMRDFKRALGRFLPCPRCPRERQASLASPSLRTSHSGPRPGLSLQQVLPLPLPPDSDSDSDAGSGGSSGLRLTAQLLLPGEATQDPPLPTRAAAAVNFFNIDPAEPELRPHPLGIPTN

Ki [1] [nM] | Ki [2] [nM] | Ki [3] [nM] | Ki [4] [nM] | Ki [5] [nM] | Compound | Ki [3, 6] [nM] | Ki [4, 7] [nM]
74 | 24 | 360 | – | – | CN1CCCC1CCN(Cc1ccccc1)Cc1ccccc1 (racemic) [Example 12] | – | –
– | 5100 | – | – | – | CN1CCC[C@H]1CCN(Cc1cccc(C(N)=O)c1)Cc1cccc(C(N)=O)c1 [Example 9] | – | –
– | 1000 | – | – | – | CN1CCC[C@@H]1CCN(Cc1cccc(O)c1)Cc1cccc(O)c1 [Example 10] | – | –
39 | 8.3 | 220 | 44 | > 4000 | Cc1ccc(CN(CC[C@@H]2CCCN2C)Cc2ccccc2)cc1 [Example 22] | – | –
47 | 28 | 160 | 16 | > 4000 | CN1CCCC1CCN(Cc1ccccc1)Cc1c(Cl)cccc1Cl (stereo not shown) [Example 23] | – | –
72 | 31 | 410 | 20 | > 4000 | Cc1ccc(C)c(CN(CCC2CCCN2C)Cc2ccccc2)c1 (stereo not shown) [Example 24] | – | –
99 | 45 | 570 | 87 | > 4000 | CN1CCCC1CCN(Cc1ccccc1)Cc1cccc2ccccc12 (stereo not shown) [Example 25] | – | –
20 | 18 | 400 | – | – | CN1CCCC1CCN(Cc1ccccc1)Cc1ccc(F)cc1 (stereo not shown) [Example 26] | – | –
– | 150 | – | – | – | CSc1ccc(CN(CCC2CCCN2C)Cc2ccccc2)cc1 (stereo not shown) [Example 27] | – | –
91 | 19 | 270 | 73 | > 4000 | CCc1ccc(CN(CCC2CCCN2C)Cc2ccccc2)cc1 (stereo not shown) [Example 28] | – | –
33 | 23 | 1010 | 69 | > 4000 | CN1CCCC1CCN(Cc1ccccc1)Cc1cccc(O)c1 (stereo not shown) [Example 29] | – | –
53 | 20 | 660 | 60 | > 4000 | Cc1cccc(CN(CCC2CCCN2C)Cc2ccccc2)c1 (stereo not shown) [Example 30] | – | –
71 | 36 | 850 | 11 | – | CC(C)c1ccc(CN(CCC2CCCN2C)Cc2ccccc2)cc1 (stereo not shown) [Example 32] | – | –
35 | 56 | 780 | 51 | > 4000 | COc1cccc(CN(CCC2CCCN2C)Cc2ccccc2)c1 (stereo not shown) [Example 33] | – | –
315 | 8.6 | 1750 | 61 | 825 | CN1CCC[C@H]1CCN(Cc1cccc(O)c1)Cc1ccc2ccccc2c1 [Example 34] | – | –
– | 200 | – | – | – | CN1CCC[C@H]1CCN(CCc1ccccc1)Cc1ccc(Cl)cc1 [Example 38] | – | –
83 | 6.6 | 1480 | 39 | > 4000 | COc1cccc(CN(CC[C@@H]2CCCN2C)Cc2ccc(Cl)cc2)c1 [Example 41] | – | –
– | 260 | – | – | – | CN1CCC[C@H]1CCN(Cc1ccc(Cl)cc1)Cc1ccccc1Cl [Example 44] | – | –
– | 161 | – | – | – | C[C@H](CN(CC[C@@H]1CCCN1C)Cc1ccc(Cl)cc1)c1ccccc1 [Example 53] | – | –
– | 170 | – | – | – | CN1CCC[C@H]1CN(Cc1ccccc1)Cc1ccccc1 [Example 55, (S)-Di-(benzyl)-2-aminomethyl-N-methylpyrrolidine] | – | –

Further lines, the compound ahead of its results:

Compound | Ki [1] [nM] | Ki [2] [nM] | Ki [3] [nM] | Ki [4] [nM] | Ki [5] [nM] | Ki [3, 6] [nM] | Ki [4, 7] [nM]
CN1CCCC1CCN(Cc1cccc(O)c1)Cc1cccc(O)c1 (racemic) [Example 3] | 2640 | 49 | > 2500 | 2000 | – | – | –
Cc1ccc(CN(CCC2CCCN2C)Cc2ccc(C)cc2)cc1 (racemic) [Example 4] | 41 | 9.9 | 110 | 20 | – | – | –
CN1CCCC1CCN(Cc1ccc(Cl)cc1)Cc1ccc(Cl)cc1 (racemic) [Example 5] | 42 | 4.7 | – | 39 | 540 | – | –
CN1CCCC1CCN(CCc1ccccc1)CCc1ccccc1 (racemic) [Example 8] | – | 3200 | – | – | – | – | –
CN1CCC[C@H]1CCN(Cc1cccc(O)c1)Cc1cccc(O)c1 [Example 2, (S)-Di-(3-hydroxybenzyl)-2-aminoethyl-N-methylpyrrolidine] | 640 | 9.7 | – | – | 3500 | > 2500 | 500
Cc1ccc(CN(CC[C@H]2CCCN2C)Cc2ccc(C)cc2)cc1 [Example 6] | 53 | 80 | 200 | 29 | 1780 | – | –
Cc1ccc(CN(CC[C@@H]2CCCN2C)Cc2ccc(C)cc2)cc1 [Example 7] | 63 | 2.1 | 221 | 17 | 2850 | – | –
CN1CCC[C@H]1CCN(Cc1ccc(O)cc1)Cc1cccc(O)c1 [Example 20] | 880 | 8.8 | > 2500 | 540 | > 4000 | – | –
CN1CCCC1CCN(Cc1ccccc1)Cc1ccc(C(C)(C)C)cc1 (stereo not shown) [Example 31] | 45 | 66 | 1210 | 130 | – | – | –
Cc1cc(CN(CC[C@@H]2CCCN2C)Cc2cccc(O)c2)cc(C)c1O [Example 35] | 2710 | 17 | > 2500 | 3470 | > 4000 | – | –
COc1ccc(CN(CC[C@@H]2CCCN2C)Cc2cccc(O)c2)cc1 [Example 36] | 1580 | 49 | 2530 | 200 | > 4000 | – | –
CN1CCC[C@H]1CCN(Cc1ccc(C(C)(C)C)cc1)Cc1cccc(O)c1 [Example 37] | 375 | 66 | 2300 | 160 | > 4000 | – | –
CN1CCC[C@H]1CCN(Cc1ccc(Cl)cc1)Cc1ccc(O)cc1Cl [Example 39] | 49 | 0.91 | 420 | 85 | 3920 | – | –
CSc1ccc(CN(CC[C@@H]2CCCN2C)Cc2ccc(Cl)cc2)cc1 [Example 40] | 132 | 6.5 | 1110 | 23 | > 4000 | – | –
Cc1cc(CN(CC[C@@H]2CCCN2C)Cc2ccc(Cl)cc2)oc1C [Example 42] | 54 | 21 | > 2500 | 88 | > 4000 | – | –
CN1CCC[C@H]1CCN(Cc1ccc(Cl)cc1)CC1CC=CCC1 (stereo partly shown) [Example 43] | – | 180 | – | – | – | – | –
CN1CCC[C@H]1CCN(Cc1ccc(Cl)cc1)Cc1ccc2c(c1)Cc1ccccc1-2 [Example 45] | 38 | 12 | 250 | 27 | > 4000 | – | –
CC(C)c1ccc(CN(CC[C@@H]2CCCN2C)Cc2ccc(Cl)cc2)cc1 [Example 46] | 350 | 80 | 1110 | 42 | 3850 | – | –
CN1CCC[C@H]1CCN(Cc1ccc(Cl)cc1)Cc1ccc(O)c(Cl)c1 [Example 47] | 110 | 2.7 | 1010 | 180 | > 4000 | – | –
Cc1cc(CN(CC[C@@H]2CCCN2C)Cc2ccc(Cl)cc2)cc(C)c1O [Example 48] | 71 | 4.2 | > 2500 | 233 | 3070 | – | –
CN1CCC[C@H]1CCN(Cc1ccc(O)cc1)Cc1ccc(Cl)cc1 [Example 49] | 177 | 1.9 | 1310 | 148 | > 4000 | – | –
COc1cc(CN(CC[C@@H]2CCCN2C)Cc2ccc(Cl)cc2)ccc1O [Example 50] | 280 | 3.2 | > 2500 | 180 | > 4000 | – | –
CN1CCC[C@H]1CCN(Cc1ccc(Cl)cc1)Cc1ccc(O)c([N+](=O)[O-])c1 [Example 51] | – | 200 | – | – | – | – | –
Cc1c(CN(CC[C@@H]2CCCN2C)Cc2ccc(Cl)cc2)sc2ccccc12 [Example 52] | 310 | 27 | 1110 | 76 | > 4000 | – | –
CCN1CCC[C@H]1CCN(Cc1ccc(C)cc1)Cc1ccc(C)cc1 [Example 54, (S)-Di-(4-methylbenzyl)aminoethyl-N-ethylpyrrolidine] | 300 | 63 | – | – | 610 | 380 | 56
(S)-(3-Hydroxybenzyl)(4-chlorobenzyl)-2-aminoethyl-N-methylpyrrolidine [Example 19] | 210 | 2.7 | – | – | > 4000 | 1580 | 74
